Reference: PubChem BioAssay AID1918999 (Molecular Pharmacology Branch, DTP, NCI, 2023)
Each block holds one molecule with its values, some of them ahead of it.

Tested on: 556581-035-R-J1-PDC complex spheroid growth
Assay: Anticancer human tumor 556581-035-R-J1-PDC patient-derived ovarian carcinoma cell line growth inhibition [AhR]
Conditions: for IC50: curve of first compound; for viability, T/C: stronger effect = lower value
In short: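 Agents were dosed in half-log steps down from roughly clinical Cmax, or from 10 microM where Cmax was unknown, alone and with AhR antagonists. Read-out: percent test/control growth of tumor spheroids containing HUVEC and MSC stromal cells.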

[1] = second compound 0.1 µM, first compound 0.0316 µM
[2] = second compound 0.1 µM, first compound 0.1 µM
[3] = second compound 0.316 µM, first compound 0.0316 µM
[4] = second compound 0.316 µM, first compound 0.1 µM
[5] = second compound 1 µM, first compound 0.0316 µM
[6] = second compound 1 µM, first compound 0.1 µM
[7] = second compound 3.16 µM, first compound 0.0316 µM
[8] = second compound 3.16 µM, first compound 0.1 µM
[9] = second compound 10 µM, first compound 0.0316 µM
[10] = second compound 10 µM, first compound 0.1 µM
[11] = second compound 0.1 µM, first compound 0.316 µM
[12] = second compound 0.1 µM, first compound 1 µM
[13] = second compound 0.1 µM, first compound 3.16 µM
[14] = second compound 0.1 µM, first compound 10 µM
[15] = second compound 0.316 µM, first compound 0.316 µM
[16] = second compound 0.316 µM, first compound 1 µM
[17] = second compound 0.316 µM, first compound 3.16 µM
[18] = second compound 0.316 µM, first compound 10 µM
[19] = second compound 1 µM, first compound 0.316 µM
[20] = second compound 1 µM, first compound 1 µM
[21] = second compound 1 µM, first compound 3.16 µM
[22] = second compound 1 µM, first compound 10 µM
[23] = second compound 3.16 µM, first compound 0.316 µM
[24] = second compound 3.16 µM, first compound 1 µM
[25] = second compound 3.16 µM, first compound 3.16 µM
[26] = second compound 3.16 µM, first compound 10 µM
[27] = second compound 10 µM, first compound 0.316 µM
[28] = second compound 10 µM, first compound 1 µM
[29] = second compound 10 µM, first compound 3.16 µM
[30] = second compound 10 µM, first compound 10 µM
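Wherever viability, T/C is given: compound exposure lasted 7 days; 100% = DMSO vehicle control growth.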

IC50 (second compound 0.1 µM): > 0.1 µM
IC50 (second compound 0.316 µM): > 0.1 µM
IC50 (second compound 1 µM): > 0.1 µM
IC50 (second compound 3.16 µM): > 0.1 µM
IC50 (second compound 10 µM): > 0.1 µM
SMILES: CC[C@@]1(O)C(=O)OCc2c1cc1n(c2=O)Cc2cc3c(CN(C)C)c(O)ccc3nc2-1 + Cc1cncc(-c2nc(NCCc3c[nH]c4ccccc34)c3ncn(C(C)C)c3n2)c1
viability, T/C (second compound 0.1 µM, first compound 0.000316 µM): 114%
viability, T/C (second compound 0.1 µM, first compound 0.001 µM): 110%
viability, T/C (second compound 0.1 µM, first compound 0.00316 µM): 105%
viability, T/C (second compound 0.1 µM, first compound 0.01 µM): 97.6%
viability, T/C [1]: 85%
viability, T/C [2]: 64.3%
viability, T/C (second compound 0.316 µM, first compound 0.000316 µM): 108%
viability, T/C (second compound 0.316 µM, first compound 0.001 µM): 115%
viability, T/C (second compound 0.316 µM, first compound 0.00316 µM): 109%
viability, T/C (second compound 0.316 µM, first compound 0.01 µM): 97.4%
viability, T/C [3]: 90.2%
viability, T/C [4]: 62.3%
viability, T/C (second compound 1 µM, first compound 0.000316 µM): 117%
viability, T/C (second compound 1 µM, first compound 0.001 µM): 115%
viability, T/C (second compound 1 µM, first compound 0.00316 µM): 105%
viability, T/C (second compound 1 µM, first compound 0.01 µM): 95%
viability, T/C [5]: 83.4%
viability, T/C [6]: 57.9%
viability, T/C (second compound 3.16 µM, first compound 0.000316 µM): 95.3%
viability, T/C (second compound 3.16 µM, first compound 0.001 µM): 101%
viability, T/C (second compound 3.16 µM, first compound 0.00316 µM): 104%
viability, T/C (second compound 3.16 µM, first compound 0.01 µM): 101%
viability, T/C [7]: 81.3%
viability, T/C [8]: 62.6%
viability, T/C (second compound 10 µM, first compound 0.000316 µM): 99.8%
viability, T/C (second compound 10 µM, first compound 0.001 µM): 103%
viability, T/C (second compound 10 µM, first compound 0.00316 µM): 99.3%
viability, T/C (second compound 10 µM, first compound 0.01 µM): 88.1%
viability, T/C [9]: 76.9%
viability, T/C [10]: 67.2%

IC50 (second compound 0.1 µM): 0.0148 µM
IC50 (second compound 0.316 µM): 0.0154 µM
IC50 (second compound 1 µM): 0.0137 µM
IC50 (second compound 3.16 µM): 0.0185 µM
IC50 (second compound 10 µM): 0.0168 µM
SMILES: CCc1c2c(nc3ccc(O)cc13)-c1cc3c(c(=O)n1C2)COC(=O)[C@]3(O)CC + Cc1cncc(-c2nc(NCCc3c[nH]c4ccccc34)c3ncn(C(C)C)c3n2)c1
viability, T/C (second compound 0.1 µM, first compound 0.000949 µM): 91.8%
viability, T/C (second compound 0.1 µM, first compound 0.003 µM): 86.4%
viability, T/C (second compound 0.1 µM, first compound 0.00949 µM): 56.4%
viability, T/C (second compound 0.1 µM, first compound 0.03 µM): 36%
viability, T/C (second compound 0.1 µM, first compound 0.0949 µM): 17.5%
viability, T/C (second compound 0.1 µM, first compound 0.3 µM): 10.5%
viability, T/C (second compound 0.316 µM, first compound 0.000949 µM): 97.3%
viability, T/C (second compound 0.316 µM, first compound 0.003 µM): 89.2%
viability, T/C (second compound 0.316 µM, first compound 0.00949 µM): 55.7%
viability, T/C (second compound 0.316 µM, first compound 0.03 µM): 40%
viability, T/C (second compound 0.316 µM, first compound 0.0949 µM): 14.4%
viability, T/C (second compound 0.316 µM, first compound 0.3 µM): 10.8%
viability, T/C (second compound 1 µM, first compound 0.000949 µM): 101%
viability, T/C (second compound 1 µM, first compound 0.003 µM): 90.2%
viability, T/C (second compound 1 µM, first compound 0.00949 µM): 60.6%
viability, T/C (second compound 1 µM, first compound 0.03 µM): 27.1%
viability, T/C (second compound 1 µM, first compound 0.0949 µM): 16.2%
viability, T/C (second compound 1 µM, first compound 0.3 µM): 9.89%
viability, T/C (second compound 3.16 µM, first compound 0.000949 µM): 84.2%
viability, T/C (second compound 3.16 µM, first compound 0.003 µM): 90.8%
viability, T/C (second compound 3.16 µM, first compound 0.00949 µM): 65.4%
viability, T/C (second compound 3.16 µM, first compound 0.03 µM): 38.8%
viability, T/C (second compound 3.16 µM, first compound 0.0949 µM): 14.6%
viability, T/C (second compound 3.16 µM, first compound 0.3 µM): 13.8%
viability, T/C (second compound 10 µM, first compound 0.000949 µM): 81.5%
viability, T/C (second compound 10 µM, first compound 0.003 µM): 73.8%
viability, T/C (second compound 10 µM, first compound 0.00949 µM): 63%
viability, T/C (second compound 10 µM, first compound 0.03 µM): 37.7%
viability, T/C (second compound 10 µM, first compound 0.0949 µM): 17.2%
viability, T/C (second compound 10 µM, first compound 0.3 µM): 9.08%

IC50 (second compound 0.1 µM): 2.77 µM
IC50 (second compound 0.316 µM): 2.42 µM
IC50 (second compound 1 µM): 2.53 µM
IC50 (second compound 3.16 µM): 1.94 µM
IC50 (second compound 10 µM): 0.791 µM
SMILES: Nc1ccccc1NC(=O)c1ccc(CNC(=O)OCc2cccnc2)cc1 + Cc1cncc(-c2nc(NCCc3c[nH]c4ccccc34)c3ncn(C(C)C)c3n2)c1
viability, T/C [1]: 106%
viability, T/C [2]: 100%
viability, T/C [11]: 93.7%
viability, T/C [12]: 76.3%
viability, T/C [13]: 46.2%
viability, T/C [14]: 19.3%
viability, T/C [3]: 107%
viability, T/C [4]: 121%
viability, T/C [15]: 102%
viability, T/C [16]: 78.5%
viability, T/C [17]: 42%
viability, T/C [18]: 19.7%
viability, T/C [5]: 108%
viability, T/C [6]: 107%
viability, T/C [19]: 89.5%
viability, T/C [20]: 77%
viability, T/C [21]: 42.2%
viability, T/C [22]: 22.2%
viability, T/C [7]: 93%
viability, T/C [8]: 99.2%
viability, T/C [23]: 98.7%
viability, T/C [24]: 67%
viability, T/C [25]: 37.6%
viability, T/C [26]: 18.1%
viability, T/C [9]: 79%
viability, T/C [10]: 87%
viability, T/C [27]: 64.5%
viability, T/C [28]: 47.1%
viability, T/C [29]: 22.8%
viability, T/C [30]: 14.7%

IC50 (second compound 0.1 µM): < 0.0316 µM
IC50 (second compound 0.316 µM): < 0.0316 µM
IC50 (second compound 1 µM): < 0.0316 µM
IC50 (second compound 3.16 µM): < 0.0316 µM
IC50 (second compound 10 µM): 6.07 µM
SMILES: Nc1ccn(C2OC(CO)C(O)C2(F)F)c(=O)n1 (stereo not given) + Cc1cncc(-c2nc(NCCc3c[nH]c4ccccc34)c3ncn(C(C)C)c3n2)c1
viability, T/C [1]: 32.8%
viability, T/C [2]: 34.5%
viability, T/C [11]: 35.8%
viability, T/C [12]: 32.9%
viability, T/C [13]: 34.1%
viability, T/C [14]: 28.2%
viability, T/C [3]: 34.5%
viability, T/C [4]: 34.9%
viability, T/C [15]: 37%
viability, T/C [16]: 37.6%
viability, T/C [17]: 29.2%
viability, T/C [18]: 32.7%
viability, T/C [5]: 31.8%
viability, T/C [6]: 36.1%
viability, T/C [19]: 36%
viability, T/C [20]: 36.5%
viability, T/C [21]: 32.7%
viability, T/C [22]: 28.6%
viability, T/C [7]: 43.3%
viability, T/C [8]: 45.4%
viability, T/C [23]: 44.3%
viability, T/C [24]: 45.9%
viability, T/C [25]: 38.2%
viability, T/C [26]: 33%
viability, T/C [9]: 55.7%
viability, T/C [10]: 64.2%
viability, T/C [27]: 57%
viability, T/C [28]: 62.7%
viability, T/C [29]: 48.1%
viability, T/C [30]: 48.6%

IC50 (second compound 0.1 µM): > 10 µM
IC50 (second compound 0.316 µM): > 10 µM
IC50 (second compound 1 µM): > 10 µM
IC50 (second compound 3.16 µM): > 10 µM
IC50 (second compound 10 µM): > 10 µM
SMILES: O=C(c1cc(Cc2n[nH]c(=O)c3ccccc23)ccc1F)N1CCN(C(=O)C2CC2)CC1 + Cc1cncc(-c2nc(NCCc3c[nH]c4ccccc34)c3ncn(C(C)C)c3n2)c1
viability, T/C [1]: 98.4%
viability, T/C [2]: 107%
viability, T/C [11]: 101%
viability, T/C [12]: 89.6%
viability, T/C [13]: 94.6%
viability, T/C [14]: 82%
viability, T/C [3]: 112%
viability, T/C [4]: 105%
viability, T/C [15]: 104%
viability, T/C [16]: 91.2%
viability, T/C [17]: 91.9%
viability, T/C [18]: 78.9%
viability, T/C [5]: 108%
viability, T/C [6]: 102%
viability, T/C [19]: 99.3%
viability, T/C [20]: 95.9%
viability, T/C [21]: 98.8%
viability, T/C [22]: 90.2%
viability, T/C [7]: 104%
viability, T/C [8]: 108%
viability, T/C [23]: 95.3%
viability, T/C [24]: 89.2%
viability, T/C [25]: 94.3%
viability, T/C [26]: 81.3%
viability, T/C [9]: 90%
viability, T/C [10]: 95.4%
viability, T/C [27]: 95.2%
viability, T/C [28]: 86.2%
viability, T/C [29]: 92.7%
viability, T/C [30]: 83.2%
